From patent publication US11412737B2, “Mixtures of beflubutamid or optically enriched forms thereof with a second herbicide” (FMC Corporation, priority 2016, dated 2022)
“And” between values parts separate entries of the source, which are not always exact repeats. Equal values may be shown once.

What was measured:
[1] = test system: Wild oat (AVEFA); assay: pre-emergence test, weed control; assay type: in vivo, Avena fatua; conditions: pre-emergent, 21 DAT, rate g ai/ha by row: r4 94, r5 125, r6 250, r7 125, r8 250, r9 500, r10 94+125, r11 125+125, r12 94+250, r13 125+250, r14 94+500, r15 125+500
Protocol: (§1) Test compositions containing the test compounds were diluted with water to provide the appropriate test rate concentrations.
(§2) For pre-emergence testing, four disposable fiber flats (6 inch by 10 inch) for each rate of application of each herbicide solution were filled with top soil, to which seeds of each species were planted in furrows made by a template pressed on the top of the soil. The furrows were covered with soil after planting the seed and were watered well before application of the test compounds.
(§3) Fiber flats designated for treatment were placed in a spray chamber having a static platform and a movable sprayer and the height of the spray nozzle was 10.5 inches above the soil level. Once the sprayer was calibrated using water for spray volume of 30 gallons per acre, flats were sprayed with sprayer at a speed to receive a coverage equivalent of 30 gallons per acre. The application rates are those shown in the Tables below for the individual herbicidal solutions and the herbicide compositions of this invention. The pre-emergence flats were immediately placed in the greenhouse and watered lightly after treatment. Thereafter they were regularly watered and fertilized for the duration of the test.
(§4) The control of weeds was evaluated in each experimental test at 21 for wheat and 28 days after treatment (DAT) for all species. Data were analyzed using Minitab software at 95% confidence interval. The results, shown as an average of the replications, were compared with results observed in untreated control flats in the same tests. Percent control was determined by a method similar to the 0 to 100 rating system disclosed in “Research Methods in Weed Science,” 2nd ed., B. Truelove, Ed.; Southern Weed Science Society; Auburn University, Auburn, Ala., 1977. The rating system is as follows in Table 1.

[2] = test system: Velvetleaf (ABUTH); assay: pre-emergence test, weed control; assay type: in vivo, Abutilon theophrasti; conditions: pre-emergent, 21 DAT, rate g ai/ha by row: r4 94, r5 125, r6 250, r7 125, r8 250, r9 500, r10 94+125, r11 125+125, r12 94+250, r13 125+250, r14 94+500, r15 125+500
Protocol: as §1, §2, §3, §4

[3] = test system: Rice flatsedge (CYPIR); assay: pre-emergence test, weed control; assay type: in vivo; conditions: pre-emergent, 28 DAT; rate g ai/ha by row: r5 94, r6 125, r7 250, r8 3.28, r9 6.56, r10 13.1, r11 94+3.28, r12 94+6.56, r13 94+13.1, r14 125+3.28, r15 125+6.56, r16 125+13.1
Protocol: as §1, §2, §3, §4

[4] = test system: Common chickweed (STEME); assay: post-emergence test, weed control; assay type: in vivo, Stellaria media; conditions: post-emergent, 28 DAT
Protocol: as §1
For post-emergence testing, seeds of each species for each rate of application of each herbicide solution were planted in 7.5 cm×7.5 cm plastic pots filled with potting soil. The seeds were germinated and the resulting plants were allowed to grow in a greenhouse until they reached a growth stage, such as height, suitable for testing. […] Pots of post-emergent treated plants were returned to the greenhouse and not watered for 24 hours after treatment. Thereafter they were regularly watered and fertilized for the duration of the test.
The control of weeds was evaluated in each experimental test at 21 for wheat and 28 days after treatment (DAT) for all species. […] The rating system is as follows in Table 1.

[5] = test system: Canola (CN); assay: post-emergence test, crop injury; assay type: in vivo; conditions: post-emergent, 28 DAT (Table 12 test)
Protocol: as §1
For post-emergence testing, seeds of each species for each rate of application of each herbicide solution were planted in 7.5 cm×7.5 cm plastic pots filled with potting soil. The seeds were germinated and the resulting plants were allowed to grow in a greenhouse until they reached a growth stage, such as height, suitable for testing. Treatments were applied using compressed air in a track spray chamber at 30 gallons/acre (280 L/ha) using a TeeJet 8001E nozzle at 40 psi (2.76 bars). Pots of post-emergent treated plants were returned to the greenhouse and not watered for 24 hours after treatment. Thereafter they were regularly watered and fertilized for the duration of the test.
The control of weeds was evaluated in each experimental test at 21 for wheat and 28 days after treatment (DAT) for all species. Data were analyzed using Minitab software at 95% confidence interval. The results, shown as an average of the replications, were compared with results observed in untreated control flats in the same tests. Percent control was determined by a method similar to the 0 to 100 rating system disclosed in “Research Methods in Weed Science,” 2nd ed., B. Truelove, Ed.; Southern Weed Science Society; Auburn University, Auburn, Ala., 1977. […]

[6] = test system: Green foxtail (SETVI); assay: pre-emergence test, weed control; assay type: in vivo, Setaria viridis; conditions: pre-emergent, 28 DAT
Protocol: as §1, §2, §3, §4

[7] = test system: Blackgrass (ALOMY); assay: pre-emergence test, weed control; assay type: in vivo; conditions: pre-emergent, 28 DAT
Protocol: as §1, §2, §3, §4

[8] = test system: Chinese sprangletop (LEFCH); assay: post-emergence test, weed control; assay type: in vivo; conditions: post-emergent, 28 DAT, height ≤0.5 cm, rate g ai/ha by row: r7 94, r8 125, r9 188, r10 125, r11 250, r12 94+125, r13 125+125, r14 188+125, r15 94+250, r16 125+250, r17 188+250
[9] = test system: Marestail (horsetail) (ERICA); assay: post-emergence test, weed control; assay type: in vivo; conditions: post-emergent, 28 DAT, height 1 cm (3-5 rosette); rate g ai/ha by row: r25 94, r26 125, r27 188, r28 125, r29 250, r30 94+125, r31 125+125, r32 188+125, r33 94+250, r34 125+250, r35 188+250
[10] = (+)-BFL >95% e.e., rate g ai/ha by row: r6 62.5, r7 125, r8 62.5, r9 125, r10 222, r11 445, r12 22.5, r13 45, r14 62.5+62.5, r15 125+62.5, r16 62.5+125, r17 125+125, r18 62.5+222, r19 125+222, r20 62.5+445, r21 125+445, r22 62.5+22.5, r23 125+22.5, r24 62.5+45, r25 125+45, 62.5 g ai/ha
[11] = (+)-BFL >95% e.e., rate g ai/ha by row: r6 62.5, r7 125, r8 62.5, r9 125, r10 222, r11 445, r12 22.5, r13 45, r14 62.5+62.5, r15 125+62.5, r16 62.5+125, r17 125+125, r18 62.5+222, r19 125+222, r20 62.5+445, r21 125+445, r22 62.5+22.5, r23 125+22.5, r24 62.5+45, r25 125+45, 125 g ai/ha
[12] = (−)-BFL >95% e.e., rate g ai/ha by row: r6 62, r7 125, r8 125, r9 250, r10 445, r11 890, r12 45, r13 90, r14 62+125, r15 125+125, r16 62+250, r17 125+250, r18 62+445, r19 125+445, r20 62+890, r21 125+890, r22 62+45, r23 125+45, r24 62+90, r25 125+90, 125 g ai/ha
[13] = (−)-BFL >95% e.e., rate g ai/ha by row: r6 62, r7 125, r8 125, r9 250, r10 445, r11 890, r12 45, r13 90, r14 62+125, r15 125+125, r16 62+250, r17 125+250, r18 62+445, r19 125+445, r20 62+890, r21 125+890, r22 62+45, r23 125+45, r24 62+90, r25 125+90, 250 g ai/ha

| Compound | percentage of weed control, Wild Oat AVEFA ([1]; 94 g ai/ha) [%] | percentage of weed control, Wild Oat AVEFA ([1]; 125 g ai/ha) [%] | percentage of weed control, Velvetleaf ABUTH ([2]; 94 g ai/ha) [%] | percentage of weed control, Velvetleaf ABUTH ([2]; 125 g ai/ha) [%] | percentage of weed control, Velvetleaf ABUTH ([2]; 250 g ai/ha) [%] | percentage of weed control, Rice flatsedge CYPIR [3] | percentage of weed control, Common chickweed STEME ([4]; COC 1%, rate g ai/ha by row: r5 94, r6 125, r7 250, r8 1.25, r9 2.5, r10 5, r11 94+1.25, r13 125+1.25, r15 94+2.5, r17 125+2.5, r19 94+5, r21 125+5) [%] | control of common chickweed ([4]; BFL at 187.5 g, PYX at 45 g, combination of both) [%] | crop injury on canola [5] | percentage of weed control, SETVI [6, 10] [%] | percentage of weed control, SETVI [6, 11] [%] | percentage of weed control, SETVI [6, 12] [%] | percentage of weed control, SETVI [6, 13] [%] | percentage of weed control, ALOMY [7, 10] [%] | percentage of weed control, ALOMY [7, 11] [%] | percentage of weed control, ALOMY [7, 12] [%] | percentage of weed control, ALOMY [7, 13] [%] | percentage of weed control, LEFCH ([8]; 125 g ai/ha) [%] | percentage of weed control, LEFCH ([8]; 250 g ai/ha) [%] | percentage of weed control, ERICA [9] [%] |
| --- | --- | --- | --- | --- | --- | --- | --- | --- | --- | --- | --- | --- | --- | --- | --- | --- | --- | --- | --- | --- |
| CCC(Oc1ccc(F)c(C(F)(F)F)c1)C(=O)NCc1ccccc1 (racemic) [BFL, 2-[4-fluoro-3-(trifluoromethyl)phenoxy]-N-(phenylmethyl)butanamide] | 10 | 9 | 10 | 15 | 14 | 71% and 88% and 100% | 5 | 16 | significant crop injury |  |  |  |  |  |  |  |  |  |  |  |
| CC1(C)CON(Cc2ccc(Cl)cc2Cl)C1=O [DCI, 2-(2,4-dichlorophenyl)methyl-4,4-dimethyl-3-isoxazolidinone] |  |  |  |  |  |  |  |  |  | 91 | 99 | 98 | 99 | 65 | 64 | 98 | 99 | 89 | 79 | 0 |
